Measured values: patent US20010044102A1, “ASSAYS AND REAGENTS FOR IDENTIFYING MODULATORS OF CDC25-MEDIATED MITOTIC ACTIVATION” (priority 1996, published 2001)

Experiments:
cdc25 = conditions: cited from earlier work
Val 5 cells = test: Myc-driven apoptosis and DNA replication in MycER cells treated with cdc25A antisense oligonucleotide, scored by TUNEL; format: cell-based; conditions: MycER induced by β-estradiol, 0.1% serum, shift from 39 to 32° C., FIG. 5B
Procedure: Finally, to investigate whether induction of the cdc25A gene is essential for Myc-driven apoptosis, we incubated Val 5 cells after MycER induction by β-estradiol with an antisense cdc25A oligonucleotide. Following this incubation, cells were shifted from 39 to 32° C., activating wild type p53 function, which normally results in apoptosis (Wagner et al. (1994) Genes Dev. 8:2817-2830). A scrambled oligonucleotide with the same nucleotide content was used in control experiments. We observed that both apoptosis and DNA replication was inhibited by the treatment with the antisense, but not with scrambled (control) oligonucleotides (FIG. 5B).
Human cdc25A, B and C under control of CMV promoter and pCMV CD20 has been described (Galaktionov et al. (1995) Science 269:1575-1577). […] Apoptotic figures were scored 24 hours later upon microscopic investigation of the cultures based on CD20 staining, indicative of successful transfection (more than 2%, usually 8-10%), and visible morphological changes indicative of cell death (membrane blebbing, chromatin condensation, etc.). […] 48 hours after shifting to 0.1% serum, MycER fusion protein was induced by the addition of β-estradiol and cell incubation continued for another 24 hours, at which point cells were photographed and apoptosis was scored by TUNEL.

In the case of CN1C2CC3C1C1C(C4=C(C(=O)C(N)=CC4=O)C(CO)N1C2C#N)N1CCOC31 (stereo not drawn) [dnacin A1], the “cdc25 inhibitor (previously described in the literature)” value (cdc25) is listed as “cdc25 inhibitors”.

For CN1C2CC3C1C1C(C4=C(C(=O)C(N)=CC4=O)C(CO)N1C2O)N1CCOC31 (stereo not drawn) [dnacin B1], the “cdc25 inhibitor (previously described in the literature)” value (cdc25) is given as “cdc25 inhibitors”.

With “scrambled oligonucleotide: scrambled oligonucleotide (GGTACCTTGACCCGGGCTCG) with the same nucleotide content, used as control (chemistry not given here)” the DNA replication (Val 5 cells) was “not”.
